For data set [1], the system named is T24 cells. The data set is described as follows: Cell cycle distribution analysis (FACS, propidium iodide), T24. In kind it is cell-based, human. Here is the method: (§1) Flow cytometry analysis was carried out to evaluate cell cycle changes and gain further insight into the mode of action with respect to the anti-proliferative effect of compound 12g. HeLA and T24 cancer cells were treated with the selected compound 12g for […] at three different gradient concentrations. The cell cycle accumulation was examined by the propidium iodide staining and cytometric quantification after the cancer cells were cultured for 24 h.
To understand the cell cycle effect of the synthesized analogs, cell cycle distribution analysis was performed by FACS (Becton Dickinson, San Jose, CA, USA). […] After treatment, the cells were washed once with PBS and fixed with 70% ice-cold ethanol at […] for overnight. Ethanol was removed by Centrifugation. The cells were stained with a solution containing 0.1% Triton-X 100 (Sigma), 0.2 mg/mL RNase (Sigma), and […] propidium iodide (PI, Sigma) in the dark for 30 min at room temperature. Then, cell cycle distribution was analyzed by using a FACS can flow cytometer (Chen et al., [2013]).

Data set [2] deals with HaCaT (human immortalized epidermal cells). The experiment in a line: MTT growth inhibition assay, HaCaT normal cells. The note with it: 48 h, read-out: IC50 (μM) HaCaT, MTT, 48 h, n = 3, normal cell line. In kind it is cell-based. Here is the method: (§2) Target compounds 12a–t were evaluated for in vitro cytotoxicity against four human tumor cell lines, including H460 (non-small cell lung carcinoma), HeLA (human cervical carcinoma), EC9706 (human esophageal squamous cell carcinoma), and T24 (human bladder carcinoma), using HaCaT (human immortalized epidermal cells) as a human non-malignant cell line. Etoposide (3) was included as a positive control. The screening procedure was based on the 3-(4, 5-dimethylthiazol-2-yl)-2, 5-diphenyltetrazoliun bromide (MTT) growth inhibition assay with triplicate experiments, and the results are summarized in Table 1.
(§3) The four human cancer cell lines and a normal human epidermal cell line of the screening panel, including H460 (human non-small cell lung carcinoma), HeLA (human cervical carcinoma), EC9706 (human esophageal squamous cell carcinoma), T24 (human bladder carcinoma), and HaCaT (human immortalized epidermal cells), were purchased from American Type Culture Collection (ATCC, Manassas, VA, U.S.A.). H460, EC9706, and T24 were maintained in RPMI 1640 medium containing 10% Fetal Bovine Serum, 100 units/ml penicillin, 100 μg/ml streptomycin under humidified incubator with 5% CO2 atmosphere at 37°C. HeLA and HaCaT were maintained in Dulbecco′s […] (DMEM) supplemented with 10% Fetal Bovine Serum 100 units/ml penicillin, 100 μg/ml streptomycin in a humidified incubator and 5% CO2 atmosphere at 37°C. Logarithmically growing cells were used for the following experiments.
(§4) The cytotoxicity of the synthesized compounds 12a–t against a panel of human cell lines was determined by the 3-(4,5-dimethylthiazol-2-yl)-2,5-diphenyltetrazoliun bromide (MTT) growth inhibition assay. The five human cell lines were, respectively, plated in 96-well-culture plates at the density of 1 × 10^5 cells per well and incubated for 24 h. Cells were exposed to different concentrations of synthetic podophyllotoxin derivatives for 48 h. MTT was added with a dose of 5 mg/mL in phosphate-buffered saline. After incubation for 4 h at 37°C, the purple formazan crystals were dissolved with […] dimethyl sulfoxide and the absorbance was measured at 570 nm in an ELISA reader. Antiproliferative activity was expressed using the IC50 value defined as the concentration of synthetic podophyllotoxin derivatives inhibiting cell proliferation by 50%. The cell viability ratio was calculated by the following formula: cell viability ratio (%) = OD treated /OD control × 100% (Ma et al., [2014]).
(Formazan colour is commonly taken as a measure of viable cells.)

Data set [3] concerns T24 (human bladder carcinoma). The experiment in a line: MTT growth inhibition assay, T24. In kind it is cell-based. As to conditions: T24, 48 h, read-out: IC50 (μM) T24, MTT, 48 h, n = 3. Here is the method: as §2, §3, §4
Data set [4] concerns T24 cells. The experiment in a line: Hoechst 33258 staining, T24. In kind it is cell-based, human. The note with it: T24, 0.5/1.0/2.0 μM, 24 h, vs vehicle 0.1% DMSO. The protocol: (§5) Apoptosis is one of the major pathways leading to the process of cell death. Visualization of chromatin condensation as well as nuclear shrinking and fragmentation—known as classic characteristics of apoptosis—was carried out in the presence of a representative compound 12g by staining T24 and HeLA cells with Hoechst 33258, by which apoptosis was confirmed as the cause of reduced cell viability.
(§6) T24 and HeLA cells were seeded at a density of 3 × 10^4 cells per well and cultured in 6 well-plates on a cover slip for 24 h at 37°C. Compound 12g treated T24 and HeLA cancer cells for 24 h at 37°C with concentrations of 0.5/1.0/2.0 and 0.75/1.5/3.0 μM, respectively. Afterward, the treated cells were fixed with 4% paraformaldehyde (PFA) for 30 min and stained with 5 μg/mL Hoechst 33258 (bis-benzimide; KeyGEN Bio TECH, China) for 30 min. Nuclei were stained with Hoechst 33258 to examine chromatin condensation or nuclear fragmentation, morphological characteristics of apoptosis. After the cells were washed twice with PBS, the cover slip was inverted and placed on a glass slide and mounted. Apoptotic cells with fluorescence of the soluble DNA fragments were detected directly and photographed under a phase contrast microscope (OLYMPUS IX51, Japan) in a Varian Fluorometer at an excitation wavelength of 365 nm and emission wavelength of 460 nm (Shareef et al., [2015]).

Data set [5] concerns EC9706 (human esophageal squamous cell carcinoma). The experiment in a line: MTT growth inhibition assay, EC9706. Format: cell-based. The note with it: EC9706, 48 h, read-out: IC50 (μM) EC9706. Here is the method: as §2, §3, §4
Data set [6] deals with HeLA cells. The experiment in a line: Cell cycle distribution analysis (FACS, propidium iodide), HeLA. In kind it is cell-based, human. As to conditions: 24 h. The protocol: as §1
To understand the cell cycle effect of the synthesized analogs, cell cycle distribution analysis was performed by FACS (Becton Dickinson, San Jose, CA, USA). T24 and HeLA cells were treated with compound 12g for 24 h at 37°C with concentrations of 0.5/1.0/2.0 and 0.75/1.5/3.0 μM, respectively. After treatment, the cells were washed once with PBS and fixed with 70% ice-cold ethanol at […] for overnight. Ethanol was removed by Centrifugation. The cells were stained with a solution containing 0.1% Triton-X 100 (Sigma), 0.2 mg/mL RNase (Sigma), and […] propidium iodide (PI, Sigma) in the dark for 30 min at room temperature. Then, cell cycle distribution was analyzed by using a FACS can flow cytometer (Chen et al., [2013]).

Data set [7] concerns HeLA (human cervical carcinoma). The data set is described as follows: MTT growth inhibition assay, HeLA. Format: cell-based. The note with it: Homo sapiens, 48 h, read-out: IC50 (μM) HeLA, MTT, 48 h, n = 3. The protocol:
as §2, §3, §4

The test system of data set [8] is HeLA cells. The experiment in a line: Hoechst 33258 staining, HeLA. The note with it: 0.75/1.5/3.0 μM, 24 h, vs vehicle 0.1% DMSO. Format: cell-based, human. Here is the method:
as §5, §6

The test system of data set [9] is H460 (human non-small cell lung carcinoma). The experiment in a line: MTT growth inhibition assay, H460. In kind it is cell-based. The note with it: NCI-H460, 48 h, read-out: IC50 (μM) H460. Here is the method: as §2, §3, §4
Data set [10] deals with four human cancer cell lines (EC-9706, HeLA, T-24 and H460) and a normal human epidermal cell line (HaCaT). The data set is described as follows: MTT growth inhibition assay, whole cell line panel. The note with it: read-out: IC50 values across the cell lines. Format: cell-based. The protocol: as §2, with “1. […]” for “1.”
The cytotoxicity of the synthesized compounds 12a–t against a panel of human cell lines was determined by the 3-(4,5-dimethylthiazol-2-yl)-2,5-diphenyltetrazoliun bromide (MTT) growth inhibition assay. […] After incubation for 4 h at 37°C, the purple formazan crystals were dissolved with […] dimethyl sulfoxide and the absorbance was measured at 570 nm in an ELISA reader. […] The cell viability ratio was calculated by the following formula: cell viability ratio (%) = OD treated /OD control × 100% (Ma et al., [2014]).

Take `CCCN(CCC)CC(=O)NC1c2cc3c(cc2C(c2cc(OC)c(O)c(OC)c2)C2C(=O)OCC12)OCO3` (centres unmarked) [Compound 12g]: the “accumulation of T24 cells at G2/M phase” value in the data set on T24 cells [1] (T24, 0.75 μM as printed in text) came to 65.15%; in the data set on T24 cells [1] (T24, 1.5 μM as printed in text), 62.76%; in the data set with T24 cells [1] (T24, 3.0 μM as printed in text) it was 79.87%. For the same molecule, the IC50 (as a rule, the concentration that inhibits the measured activity by half) in data set [2] was > 50 µM; in data set [3], 2.98 ± 0.26 µM; in [5], > 50 µM; in data set [7] it was 2.34 ± 0.39 µM; in data set [9], 24.2 ± 0.77 µM. For the same molecule, the “apoptotic morphology (Hoechst 33258 staining)” value was “markedly increased chromatin condensation, nuclear fragmentation and morphological changes” in the data set on T24 cells [4]; “markedly increased chromatin condensation, nuclear fragmentation and morphological changes” in the data set with HeLA cells [8]. Also, the entries for the “Cell cycle phase (%) G2/M” value with HeLA cells [6] (0.75 uM), with HeLA cells [6] (1.5 uM) and with HeLA cells [6] (3 uM) were 79.69%, 89.18% and 90.66%, respectively.
Turning to `CCCCNCC(=O)N[C@@H]1c2cc3c(cc2[C@@H](c2cc(OC)c(O)c(OC)c2)[C@H]2C(=O)OC[C@@H]21)OCO3` [Compound 12h], the melting point (as a rule, the temperature of the solid-liquid transition) was in the range of 115 to 118 °C. For the same molecule, the IC50 in data set [2] worked out at 1.54 ± 0.29 µM. In addition, the 50% inhibitory concentration (IC50) in data set [10] was in the range of 1.2 to 22.8 µM. Also, the concentration for half-maximal inhibition (IC50) in data set [3] came to 12.1 ± 1.28 µM. For the same molecule, the IC50 in data set [5] came to 22.8 ± 0.32 µM. In addition, the IC50 in [7] came out at 1.21 ± 0.31 µM. Also, the IC50 in data set [9] is 1.57 ± 0.37 µM.

The record behind these values is paper PMC6491884, “Synthesis and Biological Evaluation of 4β-N-Acetylamino Substituted Podophyllotoxin Derivatives as Novel Anticancer Agents” (Frontiers in Chemistry, 2019).
